From patent US7749546B2, “Composition for effectively suppressing the growth of prostate cancer cell, suppressing the prostatic hyperplasia and its preparation method” (Golden Biotechnology Corp., priority 2004, dated 2010)

Test system: human prostate cancer cell lines—LNCaP cells
Assay: In vitro mode adjunctive treatment activity assay with Taxol (MTT cell survival)
Format: cell-based
Details: 2 nM Taxol alone
Procedure: Utilize in vitro filter mode for human prostate cancer cell lines—LNCaP cells. Where human prostate cancer cell lines—LNCaP cells is being cultured in the culture medium which is supplemented by fetalbovine serum for 24 hours, and process cells by Taxol for 72 hours, and then change the culture medium so as to culture it in a new culture medium by adding assay sample for 72 hours, afterwards evaluate the cell survival rate by MIT colorimetric analysis method.
※ The assay analysis of the compositions in accordance with the present invention in effect for suppressing the growth of human prostate cancer cells, wherein it is necessary to compute the cell survival rate for cells in each well of 96-well microplate, afterwards evaluate the cancer cells survival rate by MIT colorimetric analysis method.
※ MTT colorimetric analysis method: MTT is a kind of tertrazolium salt, with a full name of 3-[4,5-Dimenthylthialzol-2-yl]2, 5-diphenyltetrazoliumbromide, which is the yellow dye, capable to be absorbed by live cells and also be reduced to blue color formazan by succinate-tetrazoliumreductase in mitochondrion, which is commonly used for filtering the affection for matters to the growth and proliferation of cells.

For CC(=O)O[C@H]1C(=O)[C@@]2(C)[C@H]([C@H](OC(=O)c3ccccc3)[C@]3(O)C[C@H](OC(=O)[C@H](O)[C@@H](NC(=O)c4ccccc4)c4ccccc4)C(C)=C1C3(C)C)[C@]1(OC(C)=O)CO[C@@H]1C[C@@H]2O [Taxol], the “cell survival rate for human prostate cancer cells” value was 56.4%.
